In US8168619B1, “Hormonal composition based on a progestational agent and an oestrogen and use thereof” (Laboratoire Theramex, priority 1999, dated 2012):
Where two headings read alike, the source gives them in different places.

Key:
menopausal women [1] = experiment: Sequential estrogen-progestative therapy: interval before periods after therapy is interrupted; type: in vivo; details: Day 13-22, with 30 μg ethinyl estradiol
Procedure: (§1) Menopausal women, whether naturally or as the result of surgery, were subjected to a sequential estrogen-progestative therapy. From Day 1 to Day 12 they received 30 μg of ethinyl estradiol and then, from Day 13 to Day 22, the same dose of ethinyl estradiol associated with different doses of nomegestrol acetate or chlormadinone acetate. The doses were as follows:
(§2) The number of women was between 2 and 11, depending on the group. There was then a therapeutic pause of 7 days followed by a second treatment cycle.
(§3) The parameters taken into account were as follows: • the interval before periods commenced after the therapy had been interrupted, following the first and second treatment cycles; • the histological appearance of the endometrium recovered in a biopsy carried out between Day 17 and Day 20 of the second cycle.

endometrial cells = experiment: Sequential estrogen-progestative therapy: histological appearance of endometrium biopsy; type: in vivo, women; details: for Number of mitoses (% of section in which mitoses were present), Glands: with 30 μg ethinyl estradiol, biopsy Day 17-20 of second cycle
Procedure: as §1, §2, §3

menopausal women [2] = experiment: Continuous combined estradiol + nomegestrol acetate, 6 months: genital bleeding; type: in vivo
Procedure: (§4) A trial was carried out to study the effects on the endometrium of the continuous combined association of an oral estradiol dose equivalent to 1.5 mg and various doses of nomegestrol acetate.
(§5) This consisted in the treatment for 6 consecutive months of 179 women who had been menopausal for at least 3 years, with 1.5 mg per day of estradiol combined continuously with 4 different doses of nomegestrol acetate: 5 mg/day (n=47); 2.5 mg/day (n=42); 1.25 mg/day (n=43) and 0.625 mg/day (n=47).
(§6) The impact of these four associations on the endometrium was evaluated by recording the characteristics of genital bleeding, measuring the thickness of the endometrium by endovaginal echography before and at the end of the therapy, and by carrying out a biopsy of the endometrium before and at the end of the therapy.

endometrium [3] = experiment: Continuous combined estradiol + nomegestrol acetate, 6 months: endometrial thickness by endovaginal echography; type: in vivo, women; details: 6 months continuous
Procedure: as §4, §5, §6

endometrium [4] = experiment: Continuous combined estradiol + nomegestrol acetate, 6 months: biopsy of the endometrium; type: in vivo, women
Procedure: as §4, §5, §6

endometrium [5] = details: cited from earlier work
[6] = doses higher than those of the application, prolonged treatments; cited from earlier work
endometrium [7] = experiment: Dose inducing transformation of the endometrium (literature); type: in vivo; details: NEUMANN; reference progestative norgestrel (=1)
Excerpt: (§7) 2) Apart from the above, it would be reasonable to think that the doses claimed should be based on data from clinical pharmacology and/or clinical data previously published and commonly accepted. Now, if the doses defined as in the PLUNKETT patents are considered, it is easy to see that in most cases the active doses published already a long time ago, i.e. before the said patents were filed (NEUMANN, 1977) or more recently (KUHL, 1996), are very coherent but only rarely lie within the dose ranges claimed in the patents in the name of PLUNKETT (Table 2).

[8] = Dose producing an adequate delay in the onset of periods (literature); type: in vivo; details: NEUMANN; reference progestative norgestrel (=1)
Excerpt: as §7

ovulation [9] = experiment: Dose inhibiting ovulation (literature); type: in vivo; details: NEUMANN; reference progestative norgestrel (=1)
Excerpt: as §7

[10] = Dose having a contraceptive effect (literature); type: in vivo; details: NEUMANN; reference progestative norgestrel (=1)
Excerpt: as §7

endometrium [11] = details: NEUMANN publication; cited from earlier work
[12] = NEUMANN publication; cited from earlier work
ovulation [13] = details: NEUMANN publication; cited from earlier work
[14] = NEUMANN publication; cited from earlier work; remark: listed apart in the source
[15] = NOMAC 0.625 mg/day + estradiol (2 mg estradiol valerate)
[16] = NOMAC 1.25 mg/day + estradiol (2 mg estradiol valerate)
[17] = NOMAC 2.5 mg/day + estradiol (2 mg estradiol valerate)
[18] = NOMAC 5 mg/day + estradiol (2 mg estradiol valerate)
[19] = NOMAC 0.625 mg/day (n = 32) + estradiol (2 mg estradiol valerate)
[20] = NOMAC 1.25 mg/day (n = 33) + estradiol (2 mg estradiol valerate)
[21] = NOMAC 2.5 mg/day (n = 34) + estradiol (2 mg estradiol valerate)
[22] = NOMAC 5 mg/day (n = 40) + estradiol (2 mg estradiol valerate)

## CC(=O)O[C@]1(C(C)=O)CC[C@H]2[C@@H]3C=C(C)C4=CC(=O)CC[C@@H]4[C@H]3CC[C@@]21C [Nomegestrol acetate, nomegestrol acetate]
Menopausal women [1]; 0.1 mg/day
  Interval before the appearance of periods after the therapy is discontinued: -0.5 ± 1.5 days
Menopausal women [1]; 0.25 mg/day
  Interval before the appearance of periods after the therapy is discontinued: -0.5 ± 0.5 days
Menopausal women [1]; 0.5 mg/day
  Interval before the appearance of periods after the therapy is discontinued: 1.5 ± 0.5 days
Menopausal women [1]; 1.0 mg/day
  Interval before the appearance of periods after the therapy is discontinued: 2.7 ± 0.2 days
Menopausal women [1]; 2.5 mg/day
  Interval before the appearance of periods after the therapy is discontinued: 3.2 ± 0.2 days
Menopausal women [1]; 5 mg/day
  Interval before the appearance of periods after the therapy is discontinued: 4.3 ± 0.4 days
Menopausal women [1]; 10 mg/day
  Interval before the appearance of periods after the therapy is discontinued: 3.8 ± 0.8 days
Endometrial cells; 0.1 mg/day
  Number of mitoses (% of section in which mitoses were present), Glands: 50%
Endometrial cells; 0.25 mg/day
  Number of mitoses (% of section in which mitoses were present), Glands: 50%
Endometrial cells; 0.5 mg/day
  Number of mitoses (% of section in which mitoses were present), Glands: 0%
Endometrial cells; 1 mg/day
  Number of mitoses (% of section in which mitoses were present), Glands: 0%
Endometrial cells; 2 mg/day
  Number of mitoses (% of section in which mitoses were present), Glands: 0%
Endometrial cells; 2.5 mg/day
  Number of mitoses (% of section in which mitoses were present), Glands: 0%
Endometrial cells; 5 mg/day
  Number of mitoses (% of section in which mitoses were present), Glands: 0%
Endometrial cells; 10 mg/day
  Number of mitoses (% of section in which mitoses were present), Glands: 30%
Endometrial cells; sequential therapy with 30 μg ethinyl estradiol
  Dose at which mitosis no longer takes place in glandular cells: ≥ 0.5 mg/day
Menopausal women [2]; 0.625 mg/day + 1.5 mg/day estradiol
  Percentage of women who showed no genital bleeding at all throughout the therapy: 42.5%
Menopausal women [2]; 1.25 mg/day + 1.5 mg/day estradiol
  Percentage of women who showed no genital bleeding at all throughout the therapy: 58.1%
Menopausal women [2]; 2.5 mg/day + 1.5 mg/day estradiol
  Percentage of women who showed no genital bleeding at all throughout the therapy: 52.4%
Menopausal women [2]; 5 mg/day + 1.5 mg/day estradiol
  Percentage of women who showed no genital bleeding at all throughout the therapy: 68.1%
Endometrium [3]; [15]
  Mean thickness at the end of the treatment: 3.18 mm
  Mean thickness increase under the treatment: 0.39 mm
Endometrium [3]; [16]
  Mean thickness at the end of the treatment: 4.05 mm
  Mean thickness increase under the treatment: 1.12 mm
Endometrium [3]; [17]
  Mean thickness at the end of the treatment: 3.93 mm
  Mean thickness increase under the treatment: 1.36 mm
Endometrium [3]; [18]
  Mean thickness at the end of the treatment: 3.83 mm
Endometrium [3]; NOMAC 5 mg/day + estradiol (2 mg estradiol valerate), listed as NOMAC
  Mean thickness increase under the treatment: 1.57 mm
Endometrium [3]; NOMAC 5 mg/day + estradiol (2 mg estradiol valerate), listed as nomegestrol acetate
  Mean thickness increase under the treatment: 1.56 mm
Endometrium [4]; [19]
  Absence of endometrium, number of women: 5
  Atrophic endometrium, number of women: 19
  Polyps, number of women: 0
  Secretory endometrium, number of women: 8
Endometrium [4]; [15]
  Absence of endometrium, percentage: (15.6) percentage
  Atrophic endometrium, percentage: (59.4) percentage
  Secretory endometrium, percentage: (25.0) percentage
Endometrium [4]; [20]
  Absence of endometrium, number of women: 10
  Atrophic endometrium, number of women: 10
  Polyps, number of women: 1
  Secretory endometrium, number of women: 12
Endometrium [4]; [16]
  Absence of endometrium, percentage: (30.3) percentage
  Atrophic endometrium, percentage: (30.3) percentage
  Polyps, percentage: (3.0) percentage
  Secretory endometrium, percentage: (36.4) percentage
Endometrium [4]; [21]
  Absence of endometrium, number of women: 3
  Atrophic endometrium, number of women: 8
  Polyps, number of women: 1
  Secretory endometrium, number of women: 22
Endometrium [4]; [17]
  Absence of endometrium, percentage: (8.8) percentage
  Atrophic endometrium, percentage: (23.5) percentage
  Polyps, percentage: (2.9) percentage
  Secretory endometrium, percentage: (64.7) percentage
Endometrium [4]; [22]
  Absence of endometrium, number of women: 3
  Atrophic endometrium, number of women: 3
  Polyps, number of women: 0
  Secretory endometrium, number of women: 34
Endometrium [4]; [18]
  Absence of endometrium, percentage: (7.5) percentage
  Atrophic endometrium, percentage: (7.5) percentage
  Secretory endometrium, percentage: (85.0) percentage
Endometrium [5]; 5 mg/day for 12 days per cycle, with various estrogens, 150 women over 1 year (THOMAS et al. 1993)
  Endometrial hyperplasia: makes it possible to prevent endometrial hyperplasia
Endometrium [5]; 5 mg/day for 14 days per cycle, women treated with percutaneous estradiol (BERNARD et al. 1994)
  Endometrial hyperplasia: absence of hyperplasia was confirmed
[6]
  Tolerance: effect on lipids profile, tolerance to glucides, arterial pressure, coagulation factors: no effect on the lipids profile, the tolerance to glucides, the arterial pressure and the coagulation factors

## C#CC1(O)CC[C@H]2[C@@H]3CCC4=CC(=O)CC[C@@H]4[C@H]3CC[C@@]21CC (stereo partly shown) [Norgestrel]
Endometrium [7]
  Dose ratio, Endometrium (1): 1.0
[8]
  Dose ratio, Menstruation (2): 1.0
Ovulation [9]
  Dose ratio, Ovulation (3): 1.0
[10]
  Dose ratio, Contraception (4): 1.0
Endometrium [11]
  Dose necessary to induce transformation of the endometrium (1): 1200 µg/day
[12]
  Dose necessary to produce an adequate delay in the onset of periods (2), Menstruation: 2000 µg/day
Ovulation [13]
  Dose necessary to inhibit ovulation (3): 100 µg/day
[14]
  Dose necessary to have a contraceptive effect (4): 250 µg/day
